# Experimental data published in patent US9549927B2, “Heteroaryl compounds and uses thereof” (Celgene Avilomics Research, Inc., priority 2012, dated 2017).
# Target: T1, full-length recombinant human Btk protein (Homo sapiens, UniProt Q06187)
# T1 construct: The full-length recombinant human Btk protein; purchased Invitrogen (Carlsbad, Calif.) Lot #619547Q (catalogue number not given)
# Assay: Covalent bonding assay, intact protein MALDI mass spectrometry
# Type: binding
# Conditions: 60 minutes incubation, 10-fold excess of compound to protein, room temperature
# Method: The following example describes testing certain compounds to determine whether they covalently bind to BTK. The full-length recombinant human Btk protein (Lot #619547Q; 0.35 mg/mL) was obtained from Invitrogen (Carlsbad, Calif.). Btk protein was diluted 2:3 in phosphate-buffered saline and stock concentration (10 mM) of compound was diluted 1:115 in 50% DMSO.
# For all compounds, 1 μL of diluted compound was added to 5 μL of diluted protein. These mixtures were then incubated for 60 minutes at a 10-fold excess of compound to protein under room temperature (˜24° C.) conditions.
# At the end of the incubation, 5 μL aliquots of the samples were diluted with 15 μL of 0.2% TFA prior to micro C4 ZipTipping® directly onto the MALDI target plate using sinapinic acid as the desorption matrix (10 mg/mL in 0.2% TFA:Acetonitrile 50:50). Samples were immediately analyzed on an ABSciex 4800 MALDI TOF-TOF mass spectrometer.
# For intact protein mass measurement, the mass spectrometer was set in linear mode using a pulsed extraction setting of 81,500. Bovine serum albumin (BSA; Sigma, St Louis, Mo.) was used as the standard to calibrate the instrument. These values correspond to the percentage of total protein covalently modified by the tested compound after one hour incubation.
# T1 sequence (Q06187 whole entry): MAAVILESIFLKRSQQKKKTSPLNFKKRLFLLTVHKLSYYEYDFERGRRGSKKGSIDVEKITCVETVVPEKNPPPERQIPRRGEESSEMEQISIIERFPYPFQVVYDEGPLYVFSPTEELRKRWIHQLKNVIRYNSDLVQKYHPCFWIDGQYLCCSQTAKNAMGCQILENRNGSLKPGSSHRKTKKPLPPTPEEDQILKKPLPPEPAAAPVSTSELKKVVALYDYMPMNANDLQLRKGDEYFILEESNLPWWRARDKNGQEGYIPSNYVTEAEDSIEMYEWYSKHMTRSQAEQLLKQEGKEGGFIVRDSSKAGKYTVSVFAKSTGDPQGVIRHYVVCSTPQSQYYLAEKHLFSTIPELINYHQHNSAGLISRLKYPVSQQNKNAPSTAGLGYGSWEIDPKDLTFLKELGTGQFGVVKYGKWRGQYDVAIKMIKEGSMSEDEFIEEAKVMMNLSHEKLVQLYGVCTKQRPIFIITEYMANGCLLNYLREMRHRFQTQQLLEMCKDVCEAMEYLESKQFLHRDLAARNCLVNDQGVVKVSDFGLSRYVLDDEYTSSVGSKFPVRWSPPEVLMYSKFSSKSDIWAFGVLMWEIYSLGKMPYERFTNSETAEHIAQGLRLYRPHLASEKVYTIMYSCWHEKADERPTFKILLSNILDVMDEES
row,Compound,MS % modification
1,"C=CC(=O)Nc1cccc(Nc2nc(Nc3ccc(OCCO)cc3)ncc2F)c1 [Compound I-1, N-(3-((5-fluoro-2-((4-(2-hydroxyethoxyl)phenyl)amino)pyrimidin-4-yl)amino)phenyl)acrylamide]",B (31-69% modification)
2,"C=CC(=O)Nc1cccc(Nc2nc(Nc3ccc(O)cc3)ncc2F)c1 [Compound I-3, N-(3-((5-fluoro-2-((4-hydroxyphenyl)amino)pyrimidin-4-yl)amino)phenyl)acrylamide]",A (>70% modification)
3,"COCCOc1ccc(Nc2ncc(F)c(Nc3cccc(NC(=O)C(O)CO)c3)n2)cc1 (stereo not drawn) [Compound I-4, N-(3-((5-fluoro-2-((4-(2-methoxyethoxyl)phenyl)amino)pyrimidin-4-yl)amino)phenyl)-2,3-dihydroxypropanamide]",C (<30% modification)
4,"O=C(Nc1cccc(Nc2nc(Nc3ccc(OCCO)cc3)ncc2F)c1)C(O)CO (stereo not drawn) [Compound I-5, N-(3-((5-fluoro-2-((4-(2-hydroxyethoxyl)phenyl)amino)pyrimidin-4-yl)amino)phenyl)-2,3-dihydroxypropanamide]",C (<30% modification)
5,"O=C(Nc1cccc(Nc2nc(Nc3ccc(O)cc3)ncc2F)c1)C(O)CO (stereo not drawn) [Compound I-6, N-(3-((5-fluoro-2-((4-hydroxyphenyl)amino)pyrimidin-4-yl)amino)phenyl)-2,3-dihydroxypropanamide]",C (<30% modification)
6,"COCCOc1ccc(Nc2ncc(F)c(Nc3cccc(NC(=O)C4CO4)c3)n2)cc1 (stereo not drawn) [Compound I-19, N-(3-((5-fluoro-2-((4-(2-methoxyethoxyl)phenyl)amino)pyrimidin-4-yl)amino)phenyl)oxirane-2-carboxamide]",A (>70% modification)
